Laboratory results reported in US20170121295A1, “POLYCYCLIC LPA1 ANTAGONIST AND USES THEREOF” (AMIRA PHARMACEUTICALS, INC., priority 2010, published 2017).
Like-named read-outs stand apart in the source and are kept apart here. One block for each compound: values may come before it.

Legend:
Human LPA1 = target: T1, Human LPA1 (Homo sapiens, UniProt Q92633); experiment: LPA1 Calcium Flux Assay; format: cell-based; settings: human LPA1 expressing CHO cells, 10 nM LPA; read-out: Ca Flux IC50 LPA1
T1 construct: the full-length cDNA for human LPA1 was obtained by PCR of the reverse transcription reaction; expressed in transfected cells
Experimental: A 1.1 kb cDNA encoding the human LPA1 receptor was cloned from human lung. Human lung RNA (Clontech Laboratories, Inc. USA) was reverse transcribed using the RETROscript kit (Ambion, Inc.) and the full-length cDNA for human LPA1 was obtained by PCR of the reverse transcription reaction. The nucleotide sequence of the cloned human LPA1 was determined by sequencing and confirmed to be identical to the published human LPA1 sequence (An et al. Biochem. Biophys. Res. Commun. 231:619 (1997). The cDNA was cloned into the pCDNA5/FRT expression plasmid and transfected in CHO cells using lipofectamine 2000 (Invitrogen Corp., USA). Clones stably expressing human LPA1 were selected using hygromycin and identified as cells that show Ca-influx in response to LPA.
(§1) Human LPA1 or LPA3 expressing CHO cells are seeded at 20,000-45,000 cells per well in a 96-well poly-D-lysine coated plate one or two days before the assay. Prior to the assay, the cells are washed once with PBS and then cultured in serum-free media overnight. On the day of the assay, a calcium indicator dye (Calcium 4, Molecular Devices) in assay buffer (HBSS with Ca^2+ and Mg^2+ and containing 20 mM Hepes and 0.3% fatty-acid free human serum albumin) is added to each well and incubation continued for 1 hour at 37° C. 10 μl of test compound in 2.5% DMSO are added to the cells and incubation continued at room temperature for 30 minutes. Cells are the stimulated by the addition of 10 nM LPA and intracellular Ca^2+ measured using the Flexstation 3 (Molecular Devices). IC50s are determined using Graphpad prism analysis of drug titration curves.

Human LPA3 = target: T2, Human LPA3 (Homo sapiens, UniProt Q9UBY5); experiment: LPA3 Calcium Flux Assay; format: cell-based; settings: human LPA3 expressing CHO cells, 10 nM LPA; read-out: Ca Flux IC50 LPA3
T2 construct: The full-length cDNA fragment for human LPA3 was obtained by PCR from the vector
T2 sequence (Q9UBY5 1-353): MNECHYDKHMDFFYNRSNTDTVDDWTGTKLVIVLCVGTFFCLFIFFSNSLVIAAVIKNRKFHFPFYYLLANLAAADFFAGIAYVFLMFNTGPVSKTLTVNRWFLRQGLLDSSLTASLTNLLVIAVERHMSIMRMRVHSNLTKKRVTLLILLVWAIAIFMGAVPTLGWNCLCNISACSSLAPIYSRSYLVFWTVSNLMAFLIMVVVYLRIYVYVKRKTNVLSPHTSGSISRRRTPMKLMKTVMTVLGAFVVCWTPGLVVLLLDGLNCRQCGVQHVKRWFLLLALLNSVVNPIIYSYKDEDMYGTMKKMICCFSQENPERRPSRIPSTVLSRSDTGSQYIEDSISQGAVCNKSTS
Experimental: A vector containing the human LPA3 receptor cDNA was obtained from the Missouri S&T cDNA Resource Center (www.cdna.org). The full-length cDNA fragment for human LPA3 was obtained by PCR from the vector. The nucleotide sequence of the cloned human LPA3 was determined by sequencing and confirmed to be identical to the published human LPA3 sequence (NCBI accession number NM_012152). The cDNA was cloned into the pCDNA5/FRT expression plasmid and transfected in CHO cells using lipofectamine 2000 (Invitrogen Corp., USA). Clones stably expressing human LPA3 were selected using hygromycin and identified as cells that show Ca-influx in response to LPA.
as §1

[1] = Pharmacokinetics in Male Beagle Dogs; format: in vivo; settings: for bioavailability: po, 5 mg/kg, read-out: apparent oral bioavailability
Experimental: The pharmacokinetics of Compound 1 and Compound 2 was assessed in male Beagle dogs.
Dosing of male Beagle dogs (n=3) was performed. Compound 1 or Compound 2 was dosed intravenously at 2 mg/kg (fasted) and orally (fasted or non-fasted) at 5 mg/kg. In fasted animals, food was withheld a minimum of 12 hours prior to dosing and then returned 4 hours post-dose. Non-fasted animals were allowed to feed 1 hour prior to dosing ad libitum. Compound 2 capsules were given by oral gavage in the fasted state. Plasma samples were collected by Perry Scientific study personnel.
The capsules are noted in Table 25 below. Capsules were size 0 gelatin (Capsugel, Peapack, N.J.). Tablet formulations are noted in Example 24.
For the clinical drug product oral solution of active agent (1.67 mg/mL), sucralose (0.5% w/w) and cherry flavor (0.5% w/w) is added to the formulation as a sweetener and taste masking agent, respectively to a 0.5% methocel aqueous solution.
(§2) Blood samples (approximately 1 mL total blood) were taken from each dog at pre-dose, and an initial time of 5 or 15 min and then various time points up to 24 hours post-dose (10-11 samples per animal). Samples were collected on wet ice in tubes containing potassium EDTA. After each blood draw, the cannula was flushed with an equivalent volume of heparinized saline (0.1 mL at 40 units/mL). Plasma samples, prepared by centrifugation of whole blood, were stored frozen (−80° C.) prior to analysis.

[2] = Pharmacokinetics in Sprague-Dawley Rats; format: in vivo; settings: for half-life: Sprague-Dawley, rat, plasma; for dose normalized exposure: oral, 10 mg/kg
Experimental: The pharmacokinetics of Compound 1 and Compound 2 was assessed in male and female Sprague-Dawley rats (225-300 g at 10 weeks).
Compound 2 (1 mg/kg) was administered intravenously (IV) to fasted rats (n=3) as a solution in purified water via a bolus injection into the jugular vein (1 mg/mL; 1 mL/kg). Compound 1 (10 mg/kg) was administered orally (PO), to fasted (for at least 12 hours) or non-fasted rats (n=2 or 3) as a solution in 0.5% methylcellulose unless otherwise noted via an oral gavage to the stomach (3.33 mg/mL; 3 mL/kg). Non-fasted animals were fasted for at least 12 hours and then were given food ad libitum for 1 hour prior to dosing. Fasted animals were dosed 1, 10, 30, 100 or 300 mg/kg Compound 1 as a solution in 0.5% methylcellulose via an oral gavage to the stomach (0.69 mg/mL, 10 mg/mL, 33.3 mg/mL or 100 mg/mL) (n=2 or 3 per dose group). In a gastrointestinal study, rats were anesthetized and Compound 1 was administered directly to the duodenum, jcjunum or ilcum at 1 mg/kg in 0.5% methylcellulose.
Capsules were also administered with Compound 2. Capsules were size 9 gelatin (Torpac, San Diego, Calif.).
as §2, with “(approximately 300 μL” for “(approximately 1 mL”, “each rat via the jugular vein cannula” for “each dog”

[3] = Thermodynamic aqueous solubility; format: physicochemical; settings: water, 25 °C, thermodynamic from solid, equilibrated at 25° C. for 24 hours, read-out: Solubility (mg/ml, free form equivalent)
Experimental: Aqueous solubility was determined by suspending sufficient compound in water to give a maximum final concentration of ≧10 mg·ml−1 of the parent free-form of the compound. The suspension was equilibrated at 25° C. for 24 hours then the pH was measured. The suspension was then filtered through a glass fiber C filter into a 96 well plate unless stated otherwise. The filtrate was then diluted by a factor of 101. Quantification was by HPLC with reference to a standard solution of approximately 0.25 mg·ml^−1 in DMSO. Different volumes of the standard, diluted and undiluted sample solutions were injected. The solubility was calculated using the peak areas determined by integration of the peak found at the same retention time as the principal peak in the standard injection.
Analysis was performed on an Agilent HP1100 series system equipped with a diode array detector and using ChemStation software vB.02.01-SR1.

renal fibrosis = settings: compared with LPA1 (−/−) mice; cited from earlier work
[4] = tested on: highly peritoneal metastatic pancreatic cancer cell line; settings: LPA-induced and ascites-induced; cited from earlier work
[5] = tested on: pancreatic cancer cell lines; settings: in response to LPA and peritoneal fluid (ascites) from pancreatic cancer patients; cited from earlier work
[6] = male, Beagle, dog, plasma, oral 5 mg/kg, fasted state

T1 sequence (Q92633 whole entry): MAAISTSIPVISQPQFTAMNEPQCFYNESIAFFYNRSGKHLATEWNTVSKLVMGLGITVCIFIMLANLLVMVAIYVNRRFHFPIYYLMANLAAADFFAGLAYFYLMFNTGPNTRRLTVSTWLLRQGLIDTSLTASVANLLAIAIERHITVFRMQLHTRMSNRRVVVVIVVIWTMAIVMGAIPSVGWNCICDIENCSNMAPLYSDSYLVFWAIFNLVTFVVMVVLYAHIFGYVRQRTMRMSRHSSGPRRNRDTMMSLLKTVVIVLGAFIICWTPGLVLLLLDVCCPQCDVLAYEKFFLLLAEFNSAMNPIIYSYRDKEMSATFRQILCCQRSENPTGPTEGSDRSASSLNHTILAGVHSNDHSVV

IC50 (Human LPA1): < 200 nM
IC50 (Human LPA3): > 1000 nM
SMILES: Cc1noc(-c2ccc(-c3ccc(C4(C(=O)O)CC4)cc3)cc2)c1NC(=O)OC(C)c1ccccc1 (racemic) [Racemic Compound 1]

effect of food on absorption ([1]; dog, fasted vs fed): food has little effect on the absorption
decrease of AUC ([1]; dosed as a capsule form, fasted): 2.5 fold
bioavailability ([1]; male, Beagle, dog, plasma, dosed as a capsule form, fasted): 24%
bioavailability ([1]; male, Beagle, dog, plasma, human dose solution): 57%
bioavailability [1, 6]: 63%
bioavailability ([1]; male, Beagle, dog, plasma, oral 5 mg/kg, fed state): 60%
bioavailability ([1]; male, Beagle, dog, plasma, tablet formulation (first of two)): 100%
bioavailability ([1]; male, Beagle, dog, plasma, tablet formulation (second of two)): 52%
Vd ([1]; male, Beagle, dog, plasma, IV 2 mg/kg, read-out: estimated volume of distribution): 0.6 L/kg
clearance ([1]; male, Beagle, dog, plasma, IV 2 mg/kg, read-out: systemic clearance): 10.5 mL/min/kg
half-life ([1]; male, Beagle, dog, plasma, IV 2 mg/kg, read-out: terminal half-life (converted)): 234 min
Cmax [1, 6]: 5500 ng/mL
volume of distribution ([2]; IV 1 mg/kg): approximately two-fold total body water
half-life ([2]; female, IV 1 mg/kg, females): 192 min
half-life ([2]; male, IV 1 mg/kg, males): 228 min
dose normalized exposure [2]: 2.4 µg·h/mL
dose normalized exposure ([2]; in a gelatin capsule): 2.1 µg·h/mL
solubility at 24 h [3]: ≥ 10 mg/mL
SMILES: Cc1noc(-c2ccc(-c3ccc(C4(C(=O)[O-])CC4)cc3)cc2)c1NC(=O)O[C@H](C)c1ccccc1.[Na+] [Compound 2, 1-{4′-[3-methyl-4-((R)-1-phenyl-ethoxycarbonylamino)-isoxazol-5-yl]-biphenyl-4-yl}-cyclopropanecarboxylic acid, sodium salt]

SMILES: Cc1noc(-c2ccc(CSCCC(=O)O)cc2)c1NC(=O)OC(C)c1ccccc1Cl (stereo not shown) [Ki16425]
development of renal fibrosis in UUO mice (renal fibrosis): closely resembled the LPA1 (−/−) mice
invasion activity [4]: blocked
in vitro migration [5]: effectively blocked

IC50 (Human LPA1): < 200 nM
IC50 (Human LPA3): > 1000 nM
SMILES: Cc1noc(-c2ccc(-c3ccc(C4(C(=O)O)CC4)cc3)cc2)c1NC(=O)O[C@@H](C)c1ccccc1 [S-enantiomer of Compound 1]
